From patent publication US11357873B2, “Chiral cyclen compounds and their uses” (THE HONG KONG POLYTECHNIC UNIVERSITY, priority 2016, dated 2022)
Marks after values point to notes of the source that are not given here.

Tests used:
Assay type in all cases: physicochemical
[1] = Rate of complexation of ligands with metal salts under mild (radiolabeling) conditions; conditions: pD 6.0-7.0, 50° C., 1H NMR titration
[2] = Absorption and photoluminescence (quantum yield, lifetime, q); design: λabs(max): unit not given here
[3] = Circularly polarized luminescence (CPL), dissymmetry factor glum; conditions: DMSO; wavelength in parentheses in the cell
[4] = Water solubility of complexes

Compound	time to complete complexation with Eu(OTf)3 [1] [min]	R, I(5D0 → 7F2)/I(5D0 → 7F1) ([2]; asymmetry ratio, room temperature, 10 in MeOH, 11 in DMSO)	q (calculated from ref 60) ([2]; from lifetimes in MeOH and MeOD)	ΦEuEu (%) ([2]; intrinsic quantum yield, calculated value)	τD2O/MeOD ([2]; luminescence lifetime, 5D0 → 7F2 transition, D2O (MeOD for 10)) [ms]	τH2O/MeOH ([2]; luminescence lifetime, 5D0 → 7F2 transition, H2O (MeOH for 10)) [ms]	ΦDMSO (%) ([2]; luminescence quantum yield in DMSO)	ΦH2O/MeOH (%) ([2]; luminescence quantum yield relative to quinine sulfate in 0.1M H2SO4, H2O (MeOH for 10, insoluble in H2O))	λabs(max) ([2]; room temperature, 10 measured in MeOH, 11 in DMSO)	ηsens (%) ([2]; sensitization efficiency, calculated according to ref 61)	glum ΔJ = 1 (λ) DMSO [3]	glum ΔJ = 3 (λ) DMSO [3]	water solubility [4]
CC[C@H]1CN(CC(=O)O)[C@@H](CC)CN(CC(=O)O)[C@@H](CC)CN(CC(=O)O)[C@@H](CC)CN1CC(=O)O [Complex L2, 2,2′,2″,2′″-((2S,5S,8S,11S)-2,5,8,11-tetraethyl-1,4,7,10-tetraazacyclododecane-1,4,7,10-tetrayl)tetraacetic acid]	≤ 5	–	–	–	–	–	–	–	–	–	–	–	–
COc1cc(OC)c(C#Cc2cc(CN3C[C@H](CC(C)C)N(CC(=O)[O-])C[C@H](CC(C)C)N(CC(=O)[O-])C[C@H](CC(C)C)N(CC(=O)[O-])C[C@@H]3CC(C)C)nc(P(C)(=O)[O-])c2)c(OC)c1.[Eu+3] [Complex 10]	–	3.01	0.05^g	36.9	1.74	1.39	45.3	11.1	364	30.1	−0.11 (591)	−0.12 (657)	poor water solubility
